Test results reported in ChEMBL document CHEMBL5614443, “Hybrids of 3-Hydroxypyridin-4(1H)-ones and Long-Chain 4-Aminoquinolines as Potent Biofilm Inhibitors of Pseudomonas aeruginosa Potentiate Tobramycin and Polymyxin B Activity” (J Med Chem, 2024).
The source made the active and inactive calls. The calls are words filed in the database; no cut-off is given here.

How the values were obtained:
Pseudomonas aeruginosa [1] = assay: Antibiofilm activity against Pseudomonas aeruginosa PAO1 assessed as inhibition of biofilm formation incubated for 24 hrs by crystal violet staining based analysis; format: functional, organism-based; details: PAO1, 24 h
Pseudomonas aeruginosa [2] = assay: Antibacterial activity against Pseudomonas aeruginosa PAO1 assessed as inhibition of bacterial growth at 0.1 to 50 uM measured upto 24 hrs by CLSI protocol based method; format: functional, organism-based; details: dose 0.1-50 µM
Pseudomonas aeruginosa [3] = assay: Antibacterial activity against Pseudomonas aeruginosa PA14 assessed as inhibition of bacterial growth incubated for 24 hrs by CLSI protocol based method; format: functional, organism-based
[4] = Inhibition of quorum sensing system in Pseudomonas aeruginosa PAO1 transfected with mini-ctx-rhlA-lacZ reporter gene assessed as decrease in beta-galactosidase activity incubated for 6 hrs by Miller assay; details: dose 1.25-20 µM
[5] = Inhibition of quorum sensing system in Pseudomonas aeruginosa PAO1 transfected with mini-ctx-pqsA-lacZ reporter gene assessed as decrease in beta-galactosidase activity incubated for 6 hrs by Miller assay; details: dose 1.25-20 µM
Pseudomonas aeruginosa [6] = assay: Inhibition of motility in Pseudomonas aeruginosa PAO1 assessed as reduction in swarming movements incubated for 16 hrs by motility assay; format: functional, organism-based; details: dose 1.25-50 µM
Pseudomonas aeruginosa [7] = assay: Inhibition of motility in Pseudomonas aeruginosa PAO1 assessed as reduction in twitching movements at 50 uM incubated for 16 hrs by motility assay; format: functional, organism-based
[8] = Metal chelating activity assessed as Fe3+ chelation by measuring iron chelation constant by fluorescence competition assay
Pseudomonas aeruginosa [9] = assay: Antibacterial activity against Pseudomonas aeruginosa clinical isolate 0617 assessed as inhibition of bacterial growth incubated for 24 hrs by CLSI protocol based method; format: functional, organism-based
Pseudomonas aeruginosa [10] = assay: Antibacterial activity against Pseudomonas aeruginosa clinical isolate 0807 assessed as inhibition of bacterial growth incubated for 24 hrs by CLSI protocol based method; format: functional, organism-based
Pseudomonas aeruginosa [11] = assay: Antibacterial activity against Pseudomonas aeruginosa clinical isolate 0808 assessed as inhibition of bacterial growth incubated for 24 hrs by CLSI protocol based method; format: functional, organism-based
Pseudomonas aeruginosa [12] = assay: Antibacterial activity against Pseudomonas aeruginosa clinical isolate 1167 assessed as inhibition of bacterial growth incubated for 24 hrs by CLSI protocol based method; format: functional, organism-based
Pseudomonas aeruginosa [13] = assay: Antibacterial activity against Pseudomonas aeruginosa clinical isolate 1074 assessed as inhibition of bacterial growth incubated for 24 hrs by CLSI protocol based method; format: functional, organism-based
Pseudomonas aeruginosa [14] = assay: Antivirulence activity in Pseudomonas aeruginosa clinical isolate 0815 assessed as reduction in rhamnolipid production at 10 uM incubated for 24 hrs by absorbance based microtiter plate reader analysis; format: functional, organism-based
Pseudomonas aeruginosa [15] = assay: Antivirulence activity in Pseudomonas aeruginosa clinical isolate 1121 assessed as reduction in rhamnolipid production at 10 uM incubated for 24 hrs by absorbance based microtiter plate reader analysis; format: functional, organism-based
Pseudomonas aeruginosa [16] = assay: Antibiofilm activity against Pseudomonas aeruginosa clinical isolate 1167 assessed as reduction in biofilm content at 10 uM incubated for 24 hrs by crystal violet staining based analysis; format: functional, organism-based
Pseudomonas aeruginosa [17] = assay: Antibiofilm activity against Pseudomonas aeruginosa clinical isolate 1121 assessed as reduction in biofilm content at 10 uM incubated for 24 hrs by crystal violet staining based analysis; format: functional, organism-based
Pseudomonas aeruginosa [18] = assay: Synergistic antibacterial activity against Pseudomonas aeruginosa PAO1 assessed as fold reduction in bacterial survival rate at 50 uM incubated for 24 hrs in presence of 1/2 MIC of tobramycin by LB agar plate method relative to tobramycin alone; format: functional
Pseudomonas aeruginosa [19] = assay: Synergistic antibacterial activity against Pseudomonas aeruginosa PAO1 assessed as bacterial survival rate at 50 uM incubated for 24 hrs in presence of 1/2 MIC of tobramycin by LB agar plate method relative to control; format: functional
Pseudomonas aeruginosa [20] = assay: Synergistic antibacterial activity against Pseudomonas aeruginosa PAO1 assessed as fold reduction in bacterial survival rate incubated for 24 hrs in presence of meropenem by LB agar plate method; format: functional
Pseudomonas aeruginosa [21] = assay: Synergistic antibacterial activity against Pseudomonas aeruginosa PAO1 assessed as fold reduction in bacterial survival rate incubated for 24 hrs in presence of azithromycin by LB agar plate method; format: functional
Pseudomonas aeruginosa [22] = assay: Synergistic antibacterial activity against Pseudomonas aeruginosa clinical isolate 0815 assessed as reduction in bacterial viability at 10 to 50 uM incubated for 24 hrs in presence of 1/8 MIC of tobramycin by LB agar plate method; format: functional, organism-based; details: dose 10-50 µM
Pseudomonas aeruginosa [23] = assay: Synergistic antibacterial activity against Pseudomonas aeruginosa clinical isolate 1121 assessed as reduction in bacterial viability at 10 to 50 uM incubated for 24 hrs in presence of 1/2 MIC of tobramycin by LB agar plate method; format: functional, organism-based; details: dose 10-50 µM
Pseudomonas aeruginosa [24] = assay: Synergistic antibacterial activity against Pseudomonas aeruginosa clinical isolate 1121 assessed as reduction in bacterial viability at 10 to 50 uM incubated for 24 hrs in presence of 1/8 MIC of tobramycin by LB agar plate method; format: functional, organism-based; details: dose 10-50 µM
Pseudomonas aeruginosa [25] = assay: Synergistic antibacterial activity against Pseudomonas aeruginosa clinical isolate 0815 assessed as reduction in bacterial viability at 10 to 50 uM incubated for 24 hrs in presence of 1/2 MIC of polymyxin B by LB agar plate method; format: functional, organism-based; details: dose 10-50 µM
Pseudomonas aeruginosa [26] = assay: Synergistic antibacterial activity against Pseudomonas aeruginosa clinical isolate 0815 assessed as reduction in bacterial viability at 10 to 50 uM incubated for 24 hrs in presence of 1/8 MIC of polymyxin B by LB agar plate method; format: functional, organism-based; details: dose 10-50 µM
Pseudomonas aeruginosa [27] = assay: Synergistic antibacterial activity against Pseudomonas aeruginosa clinical isolate 1167 assessed as reduction in bacterial viability at 10 to 50 uM incubated for 24 hrs in presence of 1/2 MIC of polymyxin B by LB agar plate method; format: functional, organism-based; details: dose 10-50 µM
Pseudomonas aeruginosa [28] = assay: Synergistic antibacterial activity against Pseudomonas aeruginosa clinical isolate 1167 assessed as reduction in bacterial viability at 10 to 50 uM incubated for 24 hrs in presence of 1/8 MIC of polymyxin B by LB agar plate method; format: functional, organism-based; details: dose 10-50 µM
Pseudomonas aeruginosa [29] = assay: Synergistic antibacterial activity against Pseudomonas aeruginosa clinical isolate 1121 assessed as reduction in bacterial viability at 10 to 50 uM incubated for 24 hrs in presence of 1/4 MIC of polymyxin B by LB agar plate method; format: functional, organism-based; details: dose 10-50 µM
Pseudomonas aeruginosa [30] = assay: Synergistic antibacterial activity against Pseudomonas aeruginosa clinical isolate 1121 assessed as fold reduction in bacterial viability at 50 uM incubated for 24 hrs in presence of 1/2 MIC of polymyxin B by LB agar plate method relative to polymyxin B alone; format: functional
[31] = Toxicity in Caenorhabditis elegans assessed as effect on survival upto 200 uM incubated for 72 hrs by bright-field microscopic analysis
Pseudomonas aeruginosa [32] = assay: Antibacterial activity against Pseudomonas aeruginosa PAO1 infected in Caenorhabditis elegans assessed as worm survival rate at 10 uM measured after 72 hrs in presence of tobramycin at 1/2 MIC by bright field microscopic analysis relative to control; format: functional
Pseudomonas aeruginosa [33] = assay: Antibacterial activity against Pseudomonas aeruginosa PAO1 infected in Caenorhabditis elegans assessed as worm survival rate at 50 uM measured after 72 hrs in presence of tobramycin at 1/2 MIC by bright field microscopic analysis relative to control; format: functional
Pseudomonas aeruginosa [34] = assay: Antibacterial activity against Pseudomonas aeruginosa PAO1 infected in Caenorhabditis elegans assessed as worm survival rate at 10 uM measured after 96 hrs in presence of polymyxin B at 1/2 MIC by bright field microscopic analysis relative to control; format: functional
Pseudomonas aeruginosa [35] = assay: Induction of Fe3+ chelating activity in Pseudomonas aeruginosa PAO1 assessed as increase in pyochelin production at 2.5 to 50 uM incubated for 24 hrs by fluorescence microplate reader; details: dose 2.5-50 µM

Question: Which results are given for Cc1cc(=O)c(O)c(C(=O)NCCCCCCCCNc2ccnc3cc(Cl)ccc23)n1C.Cl?
Answer: IC50 (Pseudomonas aeruginosa [1]): 5.8 µM; Activity (Pseudomonas aeruginosa [2]): inactive; Activity (Pseudomonas aeruginosa [3]): inactive; inhibition [4]: Dose-Dependent Effect; inhibition [5]: Dose-Dependent Effect; inhibition (Pseudomonas aeruginosa [6]): Dose-Dependent Effect; inhibition (Pseudomonas aeruginosa [7]): Active; pFe3+ [8]: 20.6; Activity (Pseudomonas aeruginosa [9]): inactive; Activity (Pseudomonas aeruginosa [10]): inactive; Activity (Pseudomonas aeruginosa [11]): inactive; Activity (Pseudomonas aeruginosa [12]): inactive; Activity (Pseudomonas aeruginosa [13]): inactive; Activity (Pseudomonas aeruginosa [14]): Active; Activity (Pseudomonas aeruginosa [15]): Active; Activity (Pseudomonas aeruginosa [16]): Active; Activity (Pseudomonas aeruginosa [17]): Active; fold change (FC) (Pseudomonas aeruginosa [18]): ~60; survival at 50 µM (Pseudomonas aeruginosa [19]): < 0.2%; fold change (FC) (Pseudomonas aeruginosa [20]): <10; fold change (FC) (Pseudomonas aeruginosa [21]): <10; Activity (Pseudomonas aeruginosa [22]): Active; Activity (Pseudomonas aeruginosa [23]): Active; Activity (Pseudomonas aeruginosa [24]): Active; Activity (Pseudomonas aeruginosa [25]): Active; Activity (Pseudomonas aeruginosa [26]): Active; Activity (Pseudomonas aeruginosa [27]): Active; Activity (Pseudomonas aeruginosa [28]): Active; Activity (Pseudomonas aeruginosa [29]): Active; fold change (FC) (Pseudomonas aeruginosa [30]): 15; Activity [31]: Non-Toxic; survival at 10 µM (Pseudomonas aeruginosa [32]): 28.4%; survival at 50 µM (Pseudomonas aeruginosa [33]): 81.5%; survival at 10 µM (Pseudomonas aeruginosa [34]): 32.1%; Activity (Pseudomonas aeruginosa [35]): inactive
